Assay results from patent US12285407B2, “Bis-indolylmethane derivatives and uses thereof” (The University of The West Indies, priority 2018, dated 2025).

Assays:
[1] = test system: Staphylococcus aureus ATCC 12600; assay: Broth microdilution MIC of SP-BIMs; format: cell-based; conditions: ATCC12600, SP-BIM alone, read-out: MIC Staphylococcus aureus ATCC 12600
[2] = test system: reference pathogen strains; assay: Checkerboard synergy study, summary over pathogens; format: cell-based; conditions: checkerboard with SP-BIM 13
Enterococcus faecium = assay: Checkerboard synergy (FICI) of antibiotics with SP-BIM; format: cell-based; conditions: Enterococcus faecium; SP-BIM 13 alone, one value per antibiotic's checkerboard; read-out: MIC SP-BIM 13 only
[3] = test system: Bacillus cereus ATCC 14579; assay: Broth microdilution MIC of SP-BIMs; format: cell-based; conditions: ATCC14579, SP-BIM alone, read-out: MIC Bacillus cereus ATCC 14579
[4] = test system: Salmonella typhimurium ATCC 14028; assay: Broth microdilution MIC of SP-BIMs; format: cell-based; conditions: Salmonella enterica, read-out: MIC Salmonella tvpkimurium ATCC 14028
In short: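 S. typhimurium at ~10^6 CFU mL^−1 in cation-adjusted Mueller Hinton broth was exposed to twofold compound dilutions from 250 to 0.02 μg mL^−1 at 35° C. for 18 hours. Resazurin was then added, with 1 hour of shaking. MIC was the lowest concentration showing no blue-to-pink colour change.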

[5] = In vivo acute toxicity (OECD guidelines); conditions: one subcutaneous injection, 2000 mg/kg and 300 mg/kg; 14 days
[6] = test system: Klebsiella pneumoniae ATCC 49472; assay: Broth microdilution MIC of SP-BIMs; format: cell-based; conditions: ATCC49472, SP-BIM alone, read-out: MIC Klebisella pneumoniae ATCC 49472
[7] = test system: Pseudomonas aeruginosa ATCC 27853; assay: Broth microdilution MIC of SP-BIMs; format: cell-based; conditions: ATCC27853, SP-BIM alone, read-out: MIC Pseudomonas aeruginosa ATCC 27853
MRSA HS 10132 = assay: Systemic non-lethal MRSA infection in mice (organ MRSA load); format: in vivo

Q: Which results are given for `Oc1cc(C(c2c[nH]c3ccccc23)c2c[nH]c3ccccc23)cc(O)c1O` [SP-BIM 13, 5-(di(1H-indol-3-yl)methyl)benzene-1,2,3-triol]?
A: MIC [1]: > 250 µg/mL; reduction of most antibiotic MICs ([2]; Gram-positive and Gram-negative pathogens): reduced by tenfold or more; interaction effect in combinations with trimethoprim [2]: antagonistic; MIC (Enterococcus faecium): 125 µg/mL; MIC [3]: 125 µg/mL; MIC [4]: 250 µg/mL; mice deaths [5]: no mice deaths were recorded; mice weight and appetite [5]: did not significantly vary from the untreated mice; MIC [6]: > 250 µg/mL; MIC [7]: 250 µg/mL; MRSA load in the spleen (MRSA HS 10132; SP-BIM 13 only, both levels): did not significantly reduce; MRSA counts in liver (MRSA HS 10132; ampicillin ([…] mg kg^−1)+5 mg kg^−1 SP-BIM 13): 7900 CFU mL^−1; MRSA counts in liver (MRSA HS 10132; ampicillin ([…] mg kg^−1)+10 mg kg^−1 SP-BIM 13): 900 CFU mL^−1; MRSA counts in liver (MRSA HS 10132; ampicillin ([…] mg kg^−1)+25 mg kg^−1 SP-BIM 13): 63 CFU mL^−1; MRSA load in the spleen (MRSA HS 10132; ampicillin and SP-BIM 13 at 10 and 25 mg kg^−1, vs no treatment, ampicillin only, ampicillin+5 mg kg^−1): significantly lower
